Test results as given in US20240130998A1, “ANALGESIA FROM ORAL PROCAINE A FORGOTTEN VOLTAGE GATED SODIUM CHANNEL BLOCKER” (priority 2023, published 2024).
Where “and” joins values, the source holds several entries; their conditions need not be identical. Equal entries are not always repeated. Where two headings read alike, the source gives them in different places.

Tests used:
[1] = target: plasma esterase (Homo sapiens, UniProt P06276); settings: cited from earlier work
[2] = cited from earlier work
[3] = system: central pore of sodium channels; settings: cited from earlier work
[4] = system: procaine induced convulsion; settings: diazepam 0.3 mg/kg intravenous; procaine 100-150 mg/kg intraperitoneally; animal model; cited from earlier work
[5] = Pharmacokinetics of intravenous procaine; assay type: in vivo; settings: 95 mg bolus IV, 70 kg human, calculated
Experimental: In a 70 kg human, with an average central compartment procaine blood volume of distribution of 0.57 L/kg procaine or 40.0. L, an initial blood level of 2.36 μg/ml is obtained with a 95 mg bolus IV procaine administration.[16]

[6] = system: patients with chronic pain; settings: cited from earlier work
[7] = Ion trapping effects of charged and uncharged procaine (pH=pKa+log B/BH+)
Source text: As the molecule transits from the blood to neural cytoplasm, procaine becomes more charged and less lipophilic within the cytoplasm of the neuron, and the concentration of the active charge species increases. The charged active species is essentially trapped in the cytoplasm, only being able to exit after hydrolysis to PABA and DEAE or through distribution.
The intraneural pH of human dorsal root ganglia is not known, but it is generally accepted that intraneural pH decreases with neural activity. The pH of cervical ganglia of a rodent is reported as 7.30-6.51, and the typical resting or “steady-state” pH within a hippocampal neuron is reported as ˜7.03-7.46,[30]

[8] = in vivo, iv; cited from earlier work
[9] = system: dorsal root ganglia neurons; settings: neurons with an abundance of Nav 1.8 channels; cited from earlier work
[10] = system: patients with acute or chronic pain; settings: cited from earlier work
[11] = in vivo, po; cited from earlier work

Chain of plasma esterase (P06276 29-602): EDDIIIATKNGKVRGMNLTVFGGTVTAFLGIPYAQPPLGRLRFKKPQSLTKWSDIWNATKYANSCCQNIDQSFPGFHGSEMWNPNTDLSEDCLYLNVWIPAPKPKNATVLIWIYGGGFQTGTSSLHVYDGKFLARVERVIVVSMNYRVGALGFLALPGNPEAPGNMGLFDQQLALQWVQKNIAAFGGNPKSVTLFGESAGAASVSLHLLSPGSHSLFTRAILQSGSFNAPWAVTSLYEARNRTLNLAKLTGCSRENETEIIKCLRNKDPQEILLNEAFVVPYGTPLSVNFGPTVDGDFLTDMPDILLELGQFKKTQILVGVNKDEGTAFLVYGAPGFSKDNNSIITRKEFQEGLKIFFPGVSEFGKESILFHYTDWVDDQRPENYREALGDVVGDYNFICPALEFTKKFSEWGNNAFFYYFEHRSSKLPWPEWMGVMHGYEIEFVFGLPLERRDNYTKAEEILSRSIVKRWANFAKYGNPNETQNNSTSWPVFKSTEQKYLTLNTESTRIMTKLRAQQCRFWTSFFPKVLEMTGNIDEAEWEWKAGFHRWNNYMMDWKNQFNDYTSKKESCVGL

Compound: CCN(CC)CCOC(=O)c1ccc(N)cc1Cl [2-chloroprocaine]
- Rate of hydrolysis by plasma esterase relative to procaine [1]: 4 ×

Compound: CCN(CC)CCO [DEAE, diethylaminoethanol]
- pKa [2]: ~10.1

Compound: Cc1cccc(C)c1NC(=O)CN [GX, glycinexylidide]
- Potency relative to the parent drug lidocaine [3]: nearly ineffective

Compound: CCNCC(=O)Nc1c(C)cccc1C [MEGX, monoethylglycinexylidide]
- Potency relative to the parent drug lidocaine [3]: 80%

Compound: Nc1ccc(C(=O)O)cc1 [PABA, para-aminobenzoic acid]
- pKa [2]: ~4.6

Compound: CN1C(=O)CN=C(c2ccccc2)c2cc(Cl)ccc21 [diazepam]
- Effect on procaine induced convulsion [4]: aborted procaine induced convulsion

Compound: CCN(CC)CCOC(=O)c1ccc(N)cc1 [procaine]
- Initial blood level [5]: 2.36 µg/mL
- Efficacy (patients successfully treated) ([6]; Balfour 1951, oral 80 mg with Metamucil, chronic dysphagia): 8
- Efficacy (patients with relief / patients treated) ([6]; Beinhauer 1954, oral 3000 mg/day, herpes zoster or burning tongue syndrome): 9/14
- Efficacy (patients with analgesia / patients treated) ([6]; Klein 1953, oral 450 mg TID, chronic pain from arthritis): 38/50
- Efficacy (patients with analgesia / patients treated) ([6]; Koch 1989, oral 200 mg BID, procaine double salt complex, chronic pain from rheumatoid arthritis): 29/30
- Efficacy (patients with analgesia / patients treated) ([6]; Kupperman 1957, oral 1000 mg TID with meals, arthritis): no analgesia and 0/50
- Efficacy (patients with chronic pain relief / patients treated) ([6]; Traut 1952, oral 3000 mg/day in divided doses after meals, arthritis): 5/32
- [BH+]/[B] ([7]; Blood, pH 7.4): 32
- [BH+]/[B] ([7]; CSF, pH 7.32): 38
- [BH+]/[B] ([7]; Ganglia or intraneural, pH 7.30-6.51): 40-245
- [BH+]/[B] ([7]; Interstitial, pH 7.4): 32
- Predicted intraneural [BH+] relative to blood [BH+] ([7]; ion trapping and diminished CSF pseudocholinesterase activity, without Michaelis-Menten kinetics): ≤ 750 times
- Factor of increase of [BH+]/[B] from blood to intraneural cytoplasm ([7]; ion trapping only): at least 7.5
- Blood level considered therapeutic [8]: 10000 ng/mL
- Minimum concentration for block of dorsal root ganglia neurons [9]: 10 µM
- Relief of pain and discomfort ([10]; Betcher, IV, 92 patients, various orthopedic conditions): adequate relief
- Analgesia ([10]; Kahl, IV infusion 2000 mg over 24 hours, acute pancreatic pain): poor analgesia
- Analgesia ([10]; Keats, IV, approximate dose 370 mg, 53 patients, acute post-operative pain): inadequate analgesia
- Chronic pain relief (patients) ([10]; Shanbrom, 500 mg to 1000 mg IV, postherpetic neuralgia): 13/16
- Relief of acute pain ([10]; Zeluff, IV 1000 mg, 3 patients, traumatic military injuries): dramatic relief
- Peak plasma procaine levels [11]: 0.2-3.1 mg percent
